# Results from ChEMBL document CHEMBL5385860, “Antiproliferative, antiangiogenic and apoptotic effect of new hybrids of quinazoline-4(3H)-ones and sulfachloropyridazine” (Eur J Med Chem, 2023).
# Legend:
# HCT-116 [1] = assay: cells; conditions: Homo sapiens, HCT-116, 24 h
# UO-31 [2] = assay: Cytotoxicity against human UO-31 cells assessed as growth inhibition at 10 uM relative to control; type: functional; conditions: read-out: GI
# BT-549 = assay: Cytotoxicity against human BT-549 cells assessed as growth inhibition at 10 uM relative to control; type: functional; conditions: read-out: GI
# M14 [3] = assay: Cytotoxicity against human M14 cells assessed as growth inhibition at 10 uM relative to control; type: functional; conditions: read-out: GI
# CAKI-1 = assay: Cytotoxicity against human CAKI-1 cells assessed as growth inhibition at 10 uM relative to control; type: functional; conditions: read-out: GI
# 786-0 = assay: Cytotoxicity against human 786-0 cells assessed as growth inhibition at 10 uM relative to control; type: functional; conditions: read-out: GI
# HCT-116 [4] = assay: Cytotoxicity against human HCT-116 cells assessed as growth inhibition at 10 uM relative to control; type: functional; conditions: read-out: GI
# M14 [5] = assay: cells; conditions: Homo sapiens, M14, 24 h
# SNB-75 [6] = assay: Cytotoxicity against human SNB-75 cells assessed as growth inhibition at 10 uM relative to control; type: functional; conditions: read-out: GI
# HOP-62 = assay: Cytotoxicity against human HOP-62 cells assessed as growth inhibition at 10 uM relative to control; type: functional; conditions: read-out: GI
# SW-620 = assay: Cytotoxicity against human SW-620 cells assessed as growth inhibition at 10 uM relative to control; type: functional; conditions: read-out: GI
# SF-539 = assay: Cytotoxicity against human SF-539 cells assessed as growth inhibition at 10 uM relative to control; type: functional; conditions: read-out: GI
# SK-OV-3 = assay: Cytotoxicity against human SK-OV-3 cells assessed as growth inhibition at 10 uM relative to control; type: functional; conditions: read-out: GI
# NCI-H522 = assay: Cytotoxicity against human NCI-H522 cells assessed as growth inhibition at 10 uM relative to control; type: functional; conditions: read-out: GI
# T47D = assay: Cytotoxicity against human T47D cells assessed as growth inhibition at 10 uM relative to control; type: functional; conditions: read-out: GI
# UACC-62 = assay: Cytotoxicity against human UACC-62 cells assessed as growth inhibition at 10 uM relative to control; type: functional; conditions: read-out: GI
# HOP-92 = assay: Cytotoxicity against human HOP-92 cells assessed as growth inhibition at 10 uM relative to control; type: functional; conditions: read-out: GI
# UACC-257 = assay: Cytotoxicity against human UACC-257 cells assessed as growth inhibition at 10 uM relative to control; type: functional; conditions: read-out: GI
# NCI-H226 = assay: Cytotoxicity against human NCI-H226 cells assessed as growth inhibition at 10 uM relative to control; type: functional; conditions: read-out: GI
# SNB-75 [7] = assay: cells; conditions: Homo sapiens, SNB-75, 24 h
# LOX IMVI = assay: Cytotoxicity against human LOX IMVI cells assessed as growth inhibition at 10 uM relative to control; type: functional; conditions: read-out: GI
# MCF7 = assay: Cytotoxicity against human MCF7 cells assessed as growth inhibition at 10 uM relative to control; type: functional; conditions: read-out: GI
# Hs-578T = assay: Cytotoxicity against human Hs-578T cells assessed as growth inhibition at 10 uM relative to control; type: functional; conditions: read-out: GI
# EKVX = assay: Cytotoxicity against human EKVX cells assessed as growth inhibition at 10 uM relative to control; type: functional; conditions: read-out: GI
# A498 = assay: Cytotoxicity against human A498 cells assessed as growth inhibition at 10 uM relative to control; type: functional; conditions: read-out: GI
# IGROV-1 = assay: Cytotoxicity against human IGROV-1 cells assessed as growth inhibition at 10 uM relative to control; type: functional; conditions: read-out: GI
# UO-31 [8] = assay: cells; conditions: Homo sapiens, UO-31, 24 h
# NCI-H322M = assay: Cytotoxicity against human NCI-H322M cells assessed as growth inhibition at 10 uM relative to control; type: functional; conditions: read-out: GI
# MDA-MB-231 = assay: Cytotoxicity against human MDA-MB-231 cells assessed as growth inhibition at 10 uM relative to control; type: functional; conditions: read-out: GI
# U-251 = assay: Cytotoxicity against human U-251 cells assessed as growth inhibition at 10 uM relative to control; type: functional; conditions: read-out: GI
# SR = assay: Cytotoxicity against human SR cells assessed as growth inhibition at 10 uM relative to control; type: functional; conditions: read-out: GI
# Malme-3M = assay: Cytotoxicity against human Malme-3M cells assessed as growth inhibition at 10 uM relative to control; type: functional; conditions: read-out: GI
# K562 = assay: Cytotoxicity against human K562 cells assessed as growth inhibition at 10 uM relative to control; type: functional; conditions: read-out: GI
# MDA-MB-468 = assay: Cytotoxicity against human MDA-MB-468 cells assessed as growth inhibition at 10 uM relative to control; type: functional; conditions: read-out: GI
# [9] = target: Vascular endothelial growth factor receptor 2 (Homo sapiens, UniProt P35968); assay: Inhibition of recombinant VEGFR2 (unknown origin) by kinase glo detection reagent based assay
# Sequence of Vascular endothelial growth factor receptor 2 (P35968 whole entry): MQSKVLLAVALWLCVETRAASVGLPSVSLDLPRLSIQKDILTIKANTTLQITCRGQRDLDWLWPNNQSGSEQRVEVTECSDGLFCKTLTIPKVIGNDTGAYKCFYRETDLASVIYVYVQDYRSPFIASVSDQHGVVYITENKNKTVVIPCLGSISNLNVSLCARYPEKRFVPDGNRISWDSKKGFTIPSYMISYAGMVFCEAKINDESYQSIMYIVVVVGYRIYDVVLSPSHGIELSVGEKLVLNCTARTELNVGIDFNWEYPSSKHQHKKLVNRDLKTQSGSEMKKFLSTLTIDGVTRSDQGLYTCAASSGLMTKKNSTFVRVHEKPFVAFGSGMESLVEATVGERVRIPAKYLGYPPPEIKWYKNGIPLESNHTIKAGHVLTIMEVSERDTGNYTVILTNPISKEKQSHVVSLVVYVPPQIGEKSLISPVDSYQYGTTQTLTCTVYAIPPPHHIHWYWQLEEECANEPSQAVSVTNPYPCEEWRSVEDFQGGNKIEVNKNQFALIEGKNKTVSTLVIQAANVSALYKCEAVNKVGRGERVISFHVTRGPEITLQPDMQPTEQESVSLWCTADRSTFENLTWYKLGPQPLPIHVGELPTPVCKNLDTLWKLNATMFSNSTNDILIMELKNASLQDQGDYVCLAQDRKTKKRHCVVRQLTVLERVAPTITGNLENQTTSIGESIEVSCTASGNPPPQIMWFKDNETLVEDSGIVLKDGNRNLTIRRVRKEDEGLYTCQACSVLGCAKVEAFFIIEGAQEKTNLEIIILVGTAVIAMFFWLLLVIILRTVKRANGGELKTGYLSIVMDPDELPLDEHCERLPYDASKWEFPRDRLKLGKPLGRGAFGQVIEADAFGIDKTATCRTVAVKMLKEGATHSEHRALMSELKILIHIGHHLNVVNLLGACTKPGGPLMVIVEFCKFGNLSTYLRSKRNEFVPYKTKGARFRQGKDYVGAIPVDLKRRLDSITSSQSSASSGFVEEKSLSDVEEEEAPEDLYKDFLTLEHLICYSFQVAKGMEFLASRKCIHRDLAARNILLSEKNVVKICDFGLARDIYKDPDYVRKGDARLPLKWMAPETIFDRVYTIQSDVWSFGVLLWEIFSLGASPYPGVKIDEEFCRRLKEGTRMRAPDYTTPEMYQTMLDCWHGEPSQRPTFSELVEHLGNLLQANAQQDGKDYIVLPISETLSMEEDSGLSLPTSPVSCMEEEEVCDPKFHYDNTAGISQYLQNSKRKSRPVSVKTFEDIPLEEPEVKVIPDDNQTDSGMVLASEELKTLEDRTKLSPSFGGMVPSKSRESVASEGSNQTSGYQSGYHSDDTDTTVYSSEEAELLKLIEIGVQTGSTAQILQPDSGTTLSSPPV
# HUVEC = assay: Cytotoxicity against HUVEC cells assessed as effect on cell morphology at 10 ug/ml measured after 72 hrs; type: toxicity, cell-based; conditions: human, dose 10 µg/ml
# UO-31 [10] = assay: Induction of apoptosis in human UO-31 cells assessed as increase in caspase-3 level by measuring optical density by Western blot densitometry analysis (reference value: 0.095); type: functional
# ACHN = assay: Cytotoxicity against human ACHN cells assessed as growth inhibition at 10 uM relative to control; type: functional; conditions: read-out: GI
compound,measurement,setting,value
Cc1ccc2[nH]c(=S)n(-c3ccc(S(=O)(=O)Nc4ccc(Cl)nn4)cc3)c(=O)c2c1,IC50,HCT-116 [1],28 µM
same,inhibition of growth at 10 µM,UO-31 [2],15%
same,inhibition of growth at 10 µM,BT-549,17%
same,inhibition of growth at 10 µM,M14 [3],100%
same,inhibition of growth at 10 µM,CAKI-1,10%
same,inhibition of growth at 10 µM,786-0,39%
same,inhibition of growth at 10 µM,HCT-116 [4],60%
same,IC50,M14 [5],12.8 µM
O=C(CSc1nc2ccccc2c(=O)n1-c1ccc(Cl)c(Cl)c1)Nc1ccc(S(=O)(=O)Nc2ccc(Cl)nn2)cc1,inhibition of growth at 10 µM,UO-31 [2],20%
same,inhibition of growth at 10 µM,SNB-75 [6],31%
same,inhibition of growth at 10 µM,HOP-62,12%
same,inhibition of growth at 10 µM,SW-620,10%
same,inhibition of growth at 10 µM,SF-539,10%
same,inhibition of growth at 10 µM,SK-OV-3,11%
same,inhibition of growth at 10 µM,NCI-H522,10%
same,inhibition of growth at 10 µM,T47D,14%
same,inhibition of growth at 10 µM,M14 [3],14%
same,inhibition of growth at 10 µM,CAKI-1,18%
same,inhibition of growth at 10 µM,UACC-62,15%
same,inhibition of growth at 10 µM,HOP-92,28%
O=C(CSc1nc2ccccc2c(=O)n1-c1ccccc1)Nc1ccc(S(=O)(=O)Nc2ccc(Cl)nn2)cc1,inhibition of growth at 10 µM,UO-31 [2],21%
same,inhibition of growth at 10 µM,SNB-75 [6],27%
same,inhibition of growth at 10 µM,UACC-257,12%
same,inhibition of growth at 10 µM,NCI-H226,10%
same,IC50,SNB-75 [7],47.5 µM
same,inhibition of growth at 10 µM,HOP-92,11%
O=c1c2cc3ccccc3cc2[nH]c(=S)n1-c1ccc(S(=O)(=O)Nc2ccc(Cl)nn2)cc1,inhibition of growth at 10 µM,UO-31 [2],18%
same,inhibition of growth at 10 µM,NCI-H522,10%
same,inhibition of growth at 10 µM,LOX IMVI,12%
same,inhibition of growth at 10 µM,MCF7,11%
same,inhibition of growth at 10 µM,CAKI-1,10%
NS(=O)(=O)c1ccc(NC(=O)CSc2nc3ccccc3c(=O)n2-c2ccc(S(=O)(=O)Nc3ccc(Cl)nn3)cc2)cc1,inhibition of growth at 10 µM,UO-31 [2],10%
same,inhibition of growth at 10 µM,SNB-75 [6],27%
same,inhibition of growth at 10 µM,Hs-578T,13%
same,inhibition of growth at 10 µM,CAKI-1,12%
same,inhibition of growth at 10 µM,UACC-62,14%
Cn1c(SCC(=O)Nc2ccc(S(=O)(=O)Nc3ccc(Cl)nn3)cc2)nc2ccccc2c1=O,inhibition of growth at 10 µM,UO-31 [2],12%
same,inhibition of growth at 10 µM,EKVX,10%
same,inhibition of growth at 10 µM,BT-549,17%
same,inhibition of growth at 10 µM,A498,19%
same,inhibition of growth at 10 µM,HOP-92,17%
CCCCn1c(SCC(=O)Nc2ccc(S(=O)(=O)Nc3ccc(Cl)nn3)cc2)nc2ccccc2c1=O,inhibition of growth at 10 µM,UO-31 [2],29%
same,inhibition of growth at 10 µM,IGROV-1,15%
same,inhibition of growth at 10 µM,SNB-75 [6],23%
same,inhibition of growth at 10 µM,EKVX,11%
same,inhibition of growth at 10 µM,HOP-62,14%
same,inhibition of growth at 10 µM,BT-549,14%
same,IC50,UO-31 [8],14.7 µM
same,inhibition of growth at 10 µM,NCI-H322M,12%
same,inhibition of growth at 10 µM,SK-OV-3,16%
same,inhibition of growth at 10 µM,NCI-H226,10%
same,inhibition of growth at 10 µM,NCI-H522,13%
same,inhibition of growth at 10 µM,MDA-MB-231,10%
same,inhibition of growth at 10 µM,CAKI-1,18%
same,inhibition of growth at 10 µM,UACC-62,14%
same,inhibition of growth at 10 µM,HOP-92,32%
same,inhibition of growth at 10 µM,U-251,10%
O=c1c2cccc(Br)c2[nH]c(=S)n1-c1ccc(S(=O)(=O)Nc2ccc(Cl)nn2)cc1,inhibition of growth at 10 µM,UO-31 [2],20%
same,inhibition of growth at 10 µM,SNB-75 [6],11%
same,inhibition of growth at 10 µM,NCI-H522,12%
same,inhibition of growth at 10 µM,CAKI-1,13%
CCn1c(SCC(=O)Nc2ccc(S(=O)(=O)Nc3ccc(Cl)nn3)cc2)nc2ccccc2c1=O,inhibition of growth at 10 µM,UO-31 [2],12%
same,inhibition of growth at 10 µM,SR,12%
same,inhibition of growth at 10 µM,A498,10%
O=c1c2ccccc2[nH]c(=S)n1-c1ccc(S(=O)(=O)Nc2ccc(Cl)nn2)cc1,inhibition of growth at 10 µM,UO-31 [2],17%
same,inhibition of growth at 10 µM,NCI-H522,11%
same,inhibition of growth at 10 µM,CAKI-1,10%
CCCCNC(=O)CSc1nc2ccccc2c(=O)n1-c1ccc(S(=O)(=O)Nc2ccc(Cl)nn2)cc1,inhibition of growth at 10 µM,UO-31 [2],12%
same,inhibition of growth at 10 µM,A498,25%
O=C(CSc1nc2ccccc2c(=O)n1C1CCCCC1)Nc1ccc(S(=O)(=O)Nc2ccc(Cl)nn2)cc1,inhibition of growth at 10 µM,UO-31 [2],21%
same,inhibition of growth at 10 µM,SNB-75 [6],16%
same,inhibition of growth at 10 µM,T47D,12%
same,inhibition of growth at 10 µM,Malme-3M,10%
same,inhibition of growth at 10 µM,CAKI-1,14%
same,inhibition of growth at 10 µM,HOP-92,25%
O=c1c2cc(Cl)cc(Cl)c2[nH]c(=S)n1-c1ccc(S(=O)(=O)Nc2ccc(Cl)nn2)cc1,IC50,HCT-116 [1],20 µM
same,inhibition of growth at 10 µM,UO-31 [2],19%
same,inhibition of growth at 10 µM,NCI-H522,10%
same,inhibition of growth at 10 µM,M14 [3],78%
same,inhibition of growth at 10 µM,CAKI-1,11%
same,inhibition of growth at 10 µM,A498,12%
same,inhibition of growth at 10 µM,786-0,21%
same,inhibition of growth at 10 µM,HCT-116 [4],48%
same,IC50,M14 [5],40.9 µM
CNC(=O)CSc1nc2ccccc2c(=O)n1-c1ccc(S(=O)(=O)Nc2ccc(Cl)nn2)cc1,inhibition of growth at 10 µM,LOX IMVI,24%
O=C(CSc1nc2ccccc2c(=O)n1-c1ccc(S(=O)(=O)Nc2ccc(Cl)nn2)cc1)Nc1ccc(S(=O)(=O)Nc2ccc(Cl)nn2)cc1,inhibition of growth at 10 µM,UO-31 [2],12%
same,inhibition of growth at 10 µM,K562,12%
same,inhibition of growth at 10 µM,LOX IMVI,10%
same,inhibition of growth at 10 µM,SR,13%
O=C(CSc1nc2ccccc2c(=O)n1-c1ccc(S(=O)(=O)Nc2ccc(Cl)nn2)cc1)NC1CCCCC1,inhibition of growth at 10 µM,MDA-MB-468,10%
same,inhibition of growth at 10 µM,SNB-75 [6],16%
same,inhibition of growth at 10 µM,Hs-578T,10%
same,inhibition of growth at 10 µM,NCI-H522,11%
same,inhibition of growth at 10 µM,A498,11%
same,inhibition of growth at 10 µM,UACC-62,10%
same,inhibition of growth at 10 µM,HOP-92,11%
O=C(CSc1nc2ccccc2c(=O)n1CCc1ccccc1)Nc1ccc(S(=O)(=O)Nc2ccc(Cl)nn2)cc1,IC50,[9],66 nM
same,Activity,HUVEC,Non-Toxic
same,OD,UO-31 [10],0.772
COc1cc2[nH]c(=S)n(-c3ccc(S(=O)(=O)Nc4ccc(Cl)nn4)cc3)c(=O)c2cc1OC,inhibition of growth at 10 µM,UO-31 [2],16%
same,inhibition of growth at 10 µM,SNB-75 [6],10%
same,inhibition of growth at 10 µM,CAKI-1,10%
same,inhibition of growth at 10 µM,HCT-116 [4],11%
O=C(CSc1nc2ccccc2c(=O)n1Cc1ccccc1)Nc1ccc(S(=O)(=O)Nc2ccc(Cl)nn2)cc1,inhibition of growth at 10 µM,UO-31 [2],21%
same,inhibition of growth at 10 µM,HOP-62,11%
same,inhibition of growth at 10 µM,NCI-H226,12%
same,inhibition of growth at 10 µM,ACHN,10%
same,inhibition of growth at 10 µM,SR,10%
same,inhibition of growth at 10 µM,MCF7,13%
same,inhibition of growth at 10 µM,MDA-MB-231,13%
same,inhibition of growth at 10 µM,CAKI-1,13%
